Patent publication US7192979B2, “EP4 receptor selective agonist in the treatment of osteoporosis” (Pfizer Inc., priority 2000, dated 2007)

Key:
[1] = test system: 293S cells transfected with EP2; assay: Kidney regeneration assay: induction of BMP-7 expression (Northern blot) in EP2 293S cells; assay type: cell-based, human; details: 10^-6M, RNA at 8, 16 and 24 hours, time dependent
Description: (§1) The role of a prostaglandin agonist in kidney regeneration is investigated by the ability of Prostaglandin E2 (PGE2) or a prostaglandin agonist to induce the expression of Bone Morphogenetic Protein 7 (BMP-7) in wild type 293S cells and in 293S cells transfected with EP2.
(§2) Methods: 293S and EP2 293S cells are grown in Dulbecco's Modified Egale medium (DMEM, Gibco, BRL; Gaithersburg, Md.). One day prior to treatment with PGE2 or a prostaglandin agonist, cells are plated at a density of 1.5×10^6 cells/10 cm dish. Generally about 16 to 24 hours later the cell monolayer is washed once with OptiMEM (Gibco, BRL; Gaithersburg, Md.) followed by the addition of 10 ml OptiMEM/dish in the presence and absense of vehicle (DMSO), PGE2 (10^−6M) or a prostaglandin agonist (10^−6M). Cells are harvested and RNA is extracted at 8, 16 and 24 hours. Northern blot analysis of total RNA ([…]) is carried out by probing the blots with ^32P-labeled BMP-7 probe. The blots are normalized for RNA loading by hybridization with ^32P-labeled 18s ribosomal RNA probe. […] Given the known role of BMP-7 in kidney regeneration and the ability of an prostaglandin agonist to induce BMP-7 expression in 293S kidney cells in a time and receptor specific manner indicates a role for prostaglandin agonist in kidney regeneration.

wild type 293S cells = assay: Kidney regeneration assay: induction of BMP-7 expression (Northern blot) in wild type 293S cells; assay type: cell-based, human; details: parental (wild type) 293S cell line; 10^-6M; 8, 16 and 24 hours
Description: as §1, §2

[2] = test system: ovariectomized (OVX) rat model; details: model for postmenopausal osteoporosis, Ke et al., Bone 23:249-255, 1998; cited from earlier work

## CCCCC[C@H](O)/C=C/[C@H]1[C@H](O)CC(=O)[C@@H]1C/C=C\CCCC(=O)O [PGE2, prostaglandin E2]
[1]
  expression of Bone Morphogenetic Protein 7 (BMP-7): induce the expression of BMP-7
Wild type 293S cells
  expression of Bone Morphogenetic Protein 7 (BMP-7): generally not observed
[2]
  restoration of lost bone: can restore lost bone
